Measured values taken from patent publication US20160009772A1, “CELL PENETRATING PEPTIDES WHICH BIND IRF5” (priority 2012, published 2016).
Where two headings read alike, the source gives them in different places.

Tests used:
[1] = test system: THP-1 cells; experiment: Cytotoxicity (cell titer glo) as headed in Table 3; format: cell-based, human; details: cytotoxicity defined as greater than 40% loss of cells
Experimental: THP-1 cells obtained from ATCC were seeded at 50 k cells/100 μl/well in a 96 well plate (Corning Cat#3340). Peptides were dissolved in DMSO at 10 mM as stock solution, then 1:10 in water at 1 mM, mix well. R848 (Enzo Cat#ALX-420-038-M005) was dissolved in DMSO (Sigma Cat#D2650) at 10 mM. […] R848 was added to the 96-well cell plate at a final concentration of 10 μM, and cells were incubated at 37° C. for 24 h. The supernatant was tested for IL6 by Alphalisa (Perkin Elmer AL233C) as per manufacturer's instructions. Viability of the cells was measured by cell titer glo (Promega).

[2] = test system: NFκB nuclear translocation in HeLa cells; experiment: NFκB translocation assay (TNFα mediated, high content imaging); format: cell-based; details: 50 μM peptide; TNFα induced NFkB translocation in HeLa cells
Experimental: The selectivity of the CPP's over NFκB was determined using a high content screening assay wherein TNFα mediated nuclear translocation of NFκB was determined by imaging.
HeLa cells were plated at 5000 cells/well in 96 well Perkin Elmer ViewPlates and incubated overnight at 37 C. Media was aspirated and compounds pre-diluted in 0.05% BSA Hanks/20 mM HEPES were added in duplicate at various concentrations for 30 minutes. Wells were stimulated with 20 μl of 150 ng/ml TNFα for 30 minutes at 37 C. Wells were aspirated and the cells were fixed with 3.7% formaldehyde solution for 15 minutes at room temperature. The fixative was removed and the plates were washed with PBS. The NFkB translocation assay, based upon detection of an antibody to p65 (Thermo-Fisher), was completed and read on the Perkin Elmer Operetta at 40×.

[3] = molecular target: T1, Wild type IRF5 (222-467) (Homo sapiens, UniProt Q13568); experiment: FRET IRF5 dimerization inhibition assay (TR-FRET), WT construct; format: binding
T1 construct: S430D phosphomimetic construct of IRF5 (222-467) as well as WT (222-467)
T1 sequence (Q13568 232-477): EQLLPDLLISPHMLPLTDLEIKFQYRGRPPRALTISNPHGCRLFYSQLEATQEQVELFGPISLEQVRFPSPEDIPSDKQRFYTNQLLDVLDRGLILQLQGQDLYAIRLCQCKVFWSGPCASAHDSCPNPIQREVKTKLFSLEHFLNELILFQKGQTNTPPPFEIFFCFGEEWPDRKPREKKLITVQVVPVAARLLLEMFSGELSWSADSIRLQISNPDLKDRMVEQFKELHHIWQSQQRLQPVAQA
Experimental: (§1) The following steps may then be performed: • 1) Prepare 100 nM of biotin-IRF5(S430D) (0.96 mg/ml or 32 uM,) and 250 nM His-IRF5(S430D) (1.51 mg/ml or 51 uM,) in AB1 • 2) Add 50 ul/well of solution in (1) into peptide solutions in 96-well PP plates as described above and incubate at RT for 20 min. • 3) Prepare 10 nM Eu-labeled streptavidin and 80 nM APC-labeled anti-His Ab in AB2 (AB1 w/o DTT) containing 5% DMSO and add 17 ul/well into solutions in (4). • 4) Transfer 30 ul/well into 384-well PP plate (Matrix) and incubate at 40 C for 1 day.
(§2) To test the ability of compounds to inhibit IRF5 dimerization a time-resolved fluorescence resonance energy transfer (TR-FRET) was developed. Binding of recombinant His tagged IRF5 (222-467 constructs) to recombinant biotin tagged IRF5 was measured by FRET between Europium labeled anti-GST antibody and Stretavidin-conjugated Allophycocyanin. […] The IRF5 S430 and WT (222-467) constructs were then used to test the ability of compounds to inhibit dimerization. […] Fifty microliters per well of 100 nM biotin tag IRF5(222-467, S430D) and 250 nM His tag IRF5(222-467, S430D) in Assay Buffer (50 mM Tris-HCl, pH 7.4, 100 mM NaCl, 1 mM DTT and 0.2 mg/ml BSA) were added. The samples were incubated at room temperature for 20 min. Seventeen microliters per well of detection solution containing 10 nM europium (Eu) conjugated streptavidin and 80 nM allophycocyanin (APC) conjugated anti-His antibody (Columbia Biosciences) in Assay Buffer (without DTT) were added. The samples were incubated at room temperature for 60 min followed by overnight incubation at 40 C and 30 ul per well were transferred to 384-well polystyrene plates (Matrix, Thermal Scientific) in duplicates. Assay signals were monitored by reading excitation at 340 nm and emission fluorescence at 615 nm and 665 nm on an Envision reader. TR-FRET signals were calculated by the ratio of acceptor to donor signals after subtracting both blank and donor cross-talk values from acceptor signal (Huang, K S and Vassilev, L T, Methods Enzymol., 399, 717-728 (2005)). The data were processed in Excel XLfit and the IC50 values were calculated using a nonlinear curve-fitting algorithm (four parameter equation). The data represent an average of 3 independent experiments (each run in triplicates) and the reported errors represent standard deviation (s.d.).

[4] = molecular target: T2, IRF5 (222-467, S430D) (Homo sapiens, UniProt Q13568, S440D); experiment: FRET IRF5 dimerization inhibition assay (TR-FRET), S430D construct; format: binding
T2 construct: 250 nM His tag IRF5(222-467, S430D); 100 nM biotin tag IRF5(222-467, S430D)
T2 sequence (Q13568 232-477 S440D): as the sequence (Q13568 232-477) above, with S209D counted along it
Experimental: as §1, §2

[5] = Table 1, WT IRF5 (222-467), average of 3 experiments ± s.d., read-out: WT IC50
[6] = Table 1, S430D phosphomimetic construct of IRF5 (222-467), average of 3 experiments ± s.d., read-out: S430D IC50
[7] = Table 2, WT IRF5 (222-467), read-out: WT IC50

Row | Molecule | Cytotoxicity in THP-1 cells at 10 μM [1] | NFkB selectivity (50 μM) [2] | IC50 [3, 5] | IC50 [4, 6] | IC50 [3, 7] | other results
1 | CSCC[C@H](NC(C)=O)C(=O)N[C@@H](C)C(=O)N[C@@H](CC(N)=O)C(=O)N[C@@H](CC(C)C)C(=O)NCC(=O)N[C@@H](Cc1ccc(O)cc1)C(=O)N[C@@H](Cc1c[nH]c2ccccc12)C(=O)N[C@@H](CC(C)C)C(=O)N[C@@H](CC(C)C)C(=O)N[C@@H](C)C(=O)N[C@@H](CC(C)C)C(=O)N[C@@H](Cc1ccccc1)C(=O)N[C@H](C(=O)N[C@H](C(=O)N[C@@H](Cc1ccc(O)cc1)C(=O)N[C@@H](Cc1c[nH]c2ccccc12)C(=O)N[C@H](C(=O)N[C@@H](CC(=O)O)C(=O)N[C@@H](CC(C)C)C(=O)NCC(=O)N[C@@H](CC(C)C)C(=O)N[C@H](C(=O)N[C@@H](CCCCN)C(=O)N[C@@H](CCCCN)C(=O)N[C@@H](CCCNC(=N)N)C(=O)N1CCC[C@H]1C(=O)N[C@@H](CCCCN)C(=O)N1CCC[C@H]1C(N)=O)C(C)C)[C@@H](C)O)[C@@H](C)O)C(C)C [SEQ ID NO 6] | None | No inhibition | 15.3 ± 4.8 µM | 15.4 ± 5.8 µM |  | 
2 | CSCC[C@H](NC(C)=O)C(=O)N[C@@H](C)C(=O)N[C@@H](CC(N)=O)C(=O)N[C@@H](CC(C)C)C(=O)NCC(=O)N[C@@H](Cc1ccc(O)cc1)C(=O)N[C@@H](Cc1c[nH]c2ccccc12)C(=O)N[C@@H](CC(C)C)C(=O)N[C@@H](C)C(=O)N[C@@H](CC(C)C)C(=O)N[C@@H](CC(C)C)C(=O)N[C@@H](Cc1ccccc1)C(=O)N[C@H](C(=O)N[C@H](C(=O)N[C@@H](CCSC)C(=O)N[C@@H](Cc1c[nH]c2ccccc12)C(=O)N[C@H](C(=O)N[C@@H](CC(=O)O)C(=O)N[C@H](C(=O)NCC(=O)N[C@@H](CC(C)C)C(=O)N[C@@H](Cc1ccccc1)C(=O)N[C@@H](CCCCN)C(=O)N[C@@H](CCCCN)C(=O)N[C@@H](CCCNC(=N)N)C(=O)N1CCC[C@H]1C(=O)N[C@@H](CCCCN)C(=O)N1CCC[C@H]1C(N)=O)C(C)C)[C@@H](C)O)[C@@H](C)O)C(C)C [SEQ ID NO 5] | None | No inhibition | 22.4 ± 6.2 µM | 26.6 ± 5.4 µM |  | 
3 | Ac-IRLQISNPDLKDLMVQWFKDGGPSSGAPPPS-NH2 [SEQ ID NO 9] |  |  |  |  | 1.4 µM | 
4 | Ac-KDLMVQWFKDGGPSSGAPPPS-NH2 [SEQ ID NO 8] |  |  |  |  | 0.79 µM | IC50 ([4]; Table 2, S430D phosphomimetic construct of IRF5 (222-467), read-out: S430D IC50): 1.68 µM
5 | Ac-PFPPLPIGEEAPKDDMVRFFKDLHQYLNVV-NH2 [SEQ ID NO 10] |  |  |  |  | 0.35 µM | 
6 | Ac-YLKFIPLKRAIWLIK-NH2 [SEQ ID NO 23, Ac-YLKFIPLKRAIWLIK-NH2, reference compound] |  |  |  |  |  | IC50 [3]: > 75 µM; IC50 [4]: > 75 µM; affinity in FRET dimerization assay ([4]; S430D and WT IRF5 (222-467) constructs): does not display any affinity
7 | CSCC[C@H](NC(C)=O)C(=O)N[C@@H](C)C(=O)N[C@@H](CC(N)=O)C(=O)N[C@@H](CC(C)C)C(=O)NCC(=O)N[C@@H](Cc1ccc(O)cc1)C(=O)N[C@@H](Cc1c[nH]c2ccccc12)C(=O)N[C@@H](CC(C)C)C(=O)N[C@@H](Cc1ccc(O)cc1)C(=O)N[C@@H](C)C(=O)N[C@@H](CC(C)C)C(=O)N[C@@H](Cc1ccccc1)C(=O)N[C@@H](CC(C)C)C(=O)N[C@H](C(=O)N[C@@H](CCSC)C(=O)N[C@H](C(=O)N[C@H](C(=O)N[C@@H](CC(=O)O)C(=O)N[C@H](C(=O)NCC(=O)N[C@@H](CC(C)C)C(=O)N[C@@H](Cc1ccccc1)C(=O)N[C@@H](CCCCN)C(=O)N[C@@H](CCCCN)C(=O)N[C@@H](CCCNC(=N)N)C(=O)N1CCC[C@H]1C(=O)N[C@@H](CCCCN)C(=O)N1CCC[C@H]1C(N)=O)C(C)C)[C@@H](C)O)C(C)C)[C@@H](C)O [SEQ ID NO 7] | None | No inhibition | 41.9 ± 6.4 µM | 34.2 ± 5.5 µM |  | 
8 | CSCC[C@H](NC(C)=O)C(=O)N[C@@H](C)C(=O)N[C@@H](CC(N)=O)C(=O)N[C@@H](CC(C)C)C(=O)NCC(=O)N[C@@H](Cc1ccc(O)cc1)C(=O)N[C@@H](Cc1c[nH]c2ccccc12)C(=O)N[C@@H](CC(C)C)C(=O)N[C@@H](CC(C)C)C(=O)N[C@@H](CC(C)C)C(=O)N[C@@H](CC(C)C)C(=O)N[C@@H](Cc1ccccc1)C(=O)N[C@H](C(=O)N[C@H](C(=O)N[C@@H](CCSC)C(=O)N[C@@H](Cc1c[nH]c2ccccc12)C(=O)N[C@H](C(=O)N[C@@H](CC(=O)O)C(=O)N[C@H](C(=O)NCC(=O)N[C@@H](CC(C)C)C(=O)N[C@@H](C)C(=O)N[C@@H](CCCCN)C(=O)N[C@@H](CCCCN)C(=O)N[C@@H](CCCNC(=N)N)C(=O)N1CCC[C@H]1C(=O)N[C@@H](CCCCN)C(=O)N1CCC[C@H]1C(N)=O)C(C)C)[C@@H](C)O)[C@@H](C)O)C(C)C [SEQ ID NO 4] | None | No inhibition | 19.5 ± 4 µM | 26.4 ± 4.5 µM |  | 
9 | Ac-MIILIISFPKHKDWKVILVK-NH2 [SEQ ID NO 14] | None | No inhibition |  |  |  | 
10 | Ac-IRLQISNPYLKFIPLKRAIWLIK-NH2 [SEQ ID NO 13] | None | No inhibition |  |  |  | 
